Measurements: patent US6362369B1, “Phthalic acid diamide derivatives fluorine-containing aniline compounds as starting material, agricultural and horticultural insecticides, and a method for application of the insecticides” (Nihon Nohyaku Co., Ltd., priority 1997, dated 2002)

Key:
Format in all cases: in vivo
[1] = tested on: diamondback moth (Plutella xylostella); assay: Insecticidal effect on diamondback moth (Test Example 1); conditions: for Insecticidal effect (Test Example 1), judged from mortality / Insecticidal effect, Test Example 1: diamondback moth; for Insecticidal effect (Test Example 1), judged from mortality: judged by the criterion of Test Example 1; for Insecticidal effect on diamondback moth (Test Example 1), judged grade: mortality judged according to the criterion shown in Test Example 1
How it was run: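 Eggs laid by adult moths on Chinese cabbage seedlings, which were immersed in test solution, air-dried and kept at 25 °C. Hatched insects counted 6 days after immersion and mortality calculated, with effect graded by criterion; triplicate groups of 10 insects.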

[2] = tested on: common cutworm (Spodoptera Litura); assay: Insecticidal effect on common cutworm (Test Example 2); conditions: 500 ppm, 25° C.; for Insecticidal effect (Test Example 2), judged from mortality / Insecticidal effect on common cutworm (Test Example 2), judged grade: cabbage leaf dip; for Insecticidal effect (Test Example 2), judged from mortality: 8 days after inoculation; for Insecticidal effect on common cutworm (Test Example 2), judged grade: second-instar larvae; for Insecticidal effect on common cutworm (Test Example 2), judged grade / Insecticidal effect, Test Example 2: eight days after inoculation; for Insecticidal effect, Test Example 2: cabbage leaf immersed
How it was run: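 Air-dried treated material was placed in a closed dish with second-instar larvae and held at 25° C. Dead and live insects were counted eight days after inoculation, and mortality was calculated and scored against a fixed insecticidal-effect criterion. Three replicate groups of 10 insects were used.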

[3] = tested on: rice leafroller (Cnaphalocrocis medinalis); assay: Insecticidal effect on rice leafroller (Test Example 3); conditions: 500 ppm, 25° C., humidity 70%; for Insecticidal effect (Test Example 3), judged from mortality / Insecticidal effect on rice leafroller (Test Example 3), judged grade: rice lamina dip; for Insecticidal effect (Test Example 3), judged from mortality: 4 days after inoculation; for Insecticidal effect on rice leafroller (Test Example 3), judged grade: third-instar larvae; for Insecticidal effect on rice leafroller (Test Example 3), judged grade / Insecticidal effect, Test Example 3: four days after inoculation; for Insecticidal effect, Test Example 3: rice lamina immersed
How it was run: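 Groups of 10 third-instar larvae, in triplicate, are placed on air-dried lamina resting on wet filter paper. Incubation runs four days at 25° C with 70% humidity before survivors and dead are tallied.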

[4] = second-instar larvae of common cutworm
[5] = third-instar larvae of rice leafroller
[6] = mortality judged by criterion of Test Example 1
[7] = common cutworm second-instar larvae
[8] = rice leafroller third-instar larvae
[9] = judged by the mortality criterion of Test Example 1

Cc1cc(C(F)(F)C(F)(F)F)ccc1NC(=O)c1cccc(Cl)c1C(=O)NC(C)(C)C#Cc1cccs1 [compound 1479]
Insecticidal effect (Test Example 1), judged from mortality [1]: A (100) | Insecticidal effect (Test Example 2), judged from mortality [2, 4]: A (100) | Insecticidal effect (Test Example 3), judged from mortality [3, 5]: A (100)

CC(C)(C)NC(=O)c1c(Cl)cccc1C(=O)Nc1ccc(C(F)(F)F)cc1 [compound 934]
Insecticidal effect on diamondback moth (Test Example 1), judged grade [1]: A (100) | Insecticidal effect on common cutworm (Test Example 2), judged grade [2]: A (100) | Insecticidal effect on rice leafroller (Test Example 3), judged grade [3]: A (100)

CSc1cccc(C(=O)Nc2ccc(Cl)cc2C)c1C(=O)NC(C)C [compound 781]
Insecticidal effect on diamondback moth (Test Example 1), judged grade [1]: A (100) | Insecticidal effect on common cutworm (Test Example 2), judged grade [2]: A (100) | Insecticidal effect on rice leafroller (Test Example 3), judged grade [3]: A (100)

Cc1cc(OC(F)(F)C(F)F)ccc1NC(=O)c1cccc(Cl)c1C(=O)NC(C)(C)C [compound 1061]
Insecticidal effect, Test Example 1 [1, 6]: A (100) | Insecticidal effect, Test Example 2 [2, 7]: A (100) | Insecticidal effect, Test Example 3 [3, 8]: A (100)

CSc1ccc(NC(=O)c2cccc(Br)c2C(=O)NC(C)C)c(C)c1 [compound 296]
Insecticidal effect, Test Example 1 [1, 9]: A (100) | Insecticidal effect, Test Example 2 [2, 4]: A (100) | Insecticidal effect, Test Example 3 [3, 5]: A (100)

Cc1cc(C(F)(F)C(F)(F)F)ccc1NC(=O)c1cccc(I)c1C(=O)NCCC(C)C [compound 1015]
Insecticidal effect, Test Example 1 [1, 6]: A (100) | Insecticidal effect, Test Example 2 [2, 7]: D (79-50) | Insecticidal effect, Test Example 3 [3, 8]: A (100)

Cc1cc(C(F)(C(F)(F)F)C(F)(F)F)ccc1NC(=O)c1cccc(I)c1C(=O)NC(C)c1ccco1 (stereo not drawn) [compound 1799]
Insecticidal effect (Test Example 1), judged from mortality [1]: A (100) | Insecticidal effect (Test Example 2), judged from mortality [2, 4]: A (100) | Insecticidal effect (Test Example 3), judged from mortality [3, 5]: A (100)

Cc1cc(Cl)ccc1NC(=O)c1cccc(I)c1C(=O)NC(C)(C)C [compound 941]
Insecticidal effect, Test Example 1 [1, 6]: A (100) | Insecticidal effect, Test Example 2 [2, 7]: A (100) | Insecticidal effect, Test Example 3 [3, 8]: A (100)

Cc1cc(OC(F)(F)C(F)C(F)(F)F)ccc1NC(=O)c1ccccc1C(=O)NC(C)C (stereo not drawn) [compound 65]
Insecticidal effect, Test Example 1 [1, 9]: A (100) | Insecticidal effect, Test Example 2 [2, 4]: A (100) | Insecticidal effect, Test Example 3 [3, 5]: A (100)

Cc1cc(C(F)(F)C(F)(F)F)ccc1NC(=O)c1cccc(I)c1C(=O)NCC(C)C [compound 1005]
Insecticidal effect, Test Example 1 [1, 6]: A (100) | Insecticidal effect, Test Example 2 [2, 7]: A (100) | Insecticidal effect, Test Example 3 [3, 8]: A (100)

CC(C)NC(=O)c1c(I)cccc1C(=O)Nc1ccc2c(c1)OC(F)(F)C(F)(F)O2 [compound 1003]
Insecticidal effect, Test Example 1 [1, 6]: A (100) | Insecticidal effect, Test Example 2 [2, 7]: A (100) | Insecticidal effect, Test Example 3 [3, 8]: A (100)

Cc1cc(C(F)(F)C(F)(F)F)ccc1NC(=O)c1cccc(Cl)c1C(=O)NC(C)(C)C#Cc1ccsc1 [compound 1628]
Insecticidal effect (Test Example 1), judged from mortality [1]: A (100) | Insecticidal effect (Test Example 2), judged from mortality [2, 4]: A (100) | Insecticidal effect (Test Example 3), judged from mortality [3, 5]: A (100)

CC(C)NC(=O)c1c(Cl)cccc1C(=O)Nc1ccc2oc(C(F)(F)C(F)(F)C(F)(F)F)nc2c1 [compound 1638]
Insecticidal effect (Test Example 1), judged from mortality [1]: A (100) | Insecticidal effect (Test Example 2), judged from mortality [2, 4]: A (100) | Insecticidal effect (Test Example 3), judged from mortality [3, 5]: A (100)

CCCNC(=O)c1c(I)cccc1C(=O)Nc1ccc(OC(F)F)cc1C [compound 1450]
Insecticidal effect (Test Example 1), judged from mortality [1]: A (100) | Insecticidal effect (Test Example 2), judged from mortality [2, 4]: A (100) | Insecticidal effect (Test Example 3), judged from mortality [3, 5]: A (100)

Cc1cc(C(F)(F)C(F)(F)C(F)(F)F)ccc1NC(=O)c1cccc(F)c1C(=O)NC(C)C [compound 496]
Insecticidal effect on diamondback moth (Test Example 1), judged grade [1]: A (100) | Insecticidal effect on common cutworm (Test Example 2), judged grade [2]: A (100) | Insecticidal effect on rice leafroller (Test Example 3), judged grade [3]: A (100)

Cc1cc(OC(F)F)c(Cl)cc1NC(=O)c1cccc(F)c1C(=O)NC(C)C [compound 517]
Insecticidal effect on diamondback moth (Test Example 1), judged grade [1]: A (100) | Insecticidal effect on common cutworm (Test Example 2), judged grade [2]: A (100) | Insecticidal effect on rice leafroller (Test Example 3), judged grade [3]: A (100)

Cc1cc(C(F)(F)C(F)(F)F)ccc1NC(=O)c1cccc(Cl)c1C(=O)NC(C)(C)C#Cc1c(Cl)cccc1Cl [compound 1586]
Insecticidal effect (Test Example 1), judged from mortality [1]: A (100) | Insecticidal effect (Test Example 2), judged from mortality [2, 4]: C (89-80) | Insecticidal effect (Test Example 3), judged from mortality [3, 5]: A (100)

COc1cc(C(F)(F)C(F)(F)F)ccc1NC(=O)c1cccc(I)c1C(=O)NC(C)C [compound 1388]
Insecticidal effect, Test Example 1 [1, 6]: A (100) | Insecticidal effect, Test Example 2 [2, 7]: D (79-50) | Insecticidal effect, Test Example 3 [3, 8]: A (100)

CC(C)NC(=O)c1c(I)cccc1C(=O)Nc1ccc(F)c(F)c1 [compound 360]
Insecticidal effect, Test Example 1 [1, 9]: A (100) | Insecticidal effect, Test Example 2 [2, 4]: D (79-50) | Insecticidal effect, Test Example 3 [3, 5]: A (100)

Cc1cc(Sc2ccc(Cl)cc2)ccc1NC(=O)c1cccc([N+](=O)[O-])c1C(=O)NC(C)C [compound 727]
Insecticidal effect on diamondback moth (Test Example 1), judged grade [1]: A (100) | Insecticidal effect on common cutworm (Test Example 2), judged grade [2]: B (99-90) | Insecticidal effect on rice leafroller (Test Example 3), judged grade [3]: A (100)

Cc1cc(OCC(F)(F)C(F)F)ccc1NC(=O)c1cccc(I)c1C(=O)NC(C)C [compound 388]
Insecticidal effect, Test Example 1 [1, 9]: A (100) | Insecticidal effect, Test Example 2 [2, 4]: A (100) | Insecticidal effect, Test Example 3 [3, 5]: B (99-90)

CCC(C)NC(=O)c1c(Cl)cccc1C(=O)Nc1ccc(C(F)(F)C(F)(F)F)cc1F (stereo not drawn) [compound 1498]
Insecticidal effect (Test Example 1), judged from mortality [1]: A (100) | Insecticidal effect (Test Example 2), judged from mortality [2, 4]: A (100) | Insecticidal effect (Test Example 3), judged from mortality [3, 5]: A (100)

CC(C)NC(=O)c1c(I)cccc1C(=O)Nc1ccc(OC(F)F)c(C(F)(F)F)c1 [compound 410]
Insecticidal effect, Test Example 1 [1, 9]: A (100) | Insecticidal effect, Test Example 2 [2, 4]: A (100) | Insecticidal effect, Test Example 3 [3, 5]: A (100)

Cc1cc(OC(F)(F)C(F)F)c(Cl)cc1NC(=O)c1cccc(I)c1C(=O)NC(C)C [compound 391]
Insecticidal effect, Test Example 1 [1, 9]: A (100) | Insecticidal effect, Test Example 2 [2, 4]: A (100) | Insecticidal effect, Test Example 3 [3, 5]: A (100)

CCC(C)(C)NC(=O)c1c(I)cccc1C(=O)Nc1ccc(OC(F)F)cc1C [compound 1568]
Insecticidal effect (Test Example 1), judged from mortality [1]: A (100) | Insecticidal effect (Test Example 2), judged from mortality [2, 4]: A (100) | Insecticidal effect (Test Example 3), judged from mortality [3, 5]: A (100)

Cc1cc(C(F)(F)C(F)(F)F)ccc1NC(=O)c1cccc(Cl)c1C(=O)NC(C)C [compound 128]
Insecticidal effect, Test Example 1 [1, 9]: A (100) | Insecticidal effect, Test Example 2 [2, 4]: D (79-50) | Insecticidal effect, Test Example 3 [3, 5]: A (100)

CC(C)(C)NC(=O)c1c(I)cccc1C(=O)Nc1ccc(C(F)(F)C(F)(F)F)cc1F [compound 1427]
Insecticidal effect, Test Example 1 [1, 6]: A (100) | Insecticidal effect, Test Example 2 [2, 7]: A (100) | Insecticidal effect, Test Example 3 [3, 8]: A (100)

CCCNC(=O)c1c(I)cccc1C(=O)Nc1ccc(C(F)(F)C(F)(F)C(F)(F)F)cc1F [compound 1524]
Insecticidal effect (Test Example 1), judged from mortality [1]: A (100) | Insecticidal effect (Test Example 2), judged from mortality [2, 4]: A (100) | Insecticidal effect (Test Example 3), judged from mortality [3, 5]: A (100)

CCN(CC)C(=O)c1c(I)cccc1C(=O)Nc1ccc(C(F)(F)F)cc1 [compound 1558]
Insecticidal effect (Test Example 1), judged from mortality [1]: A (100) | Insecticidal effect (Test Example 2), judged from mortality [2, 4]: C (89-80) | Insecticidal effect (Test Example 3), judged from mortality [3, 5]: A (100)

Cc1cc(SC(F)(F)C(F)(F)F)ccc1NC(=O)c1c(Cl)cccc1C(=O)NC(C)C [compound 908]
Insecticidal effect on diamondback moth (Test Example 1), judged grade [1]: A (100) | Insecticidal effect on common cutworm (Test Example 2), judged grade [2]: D (79-50) | Insecticidal effect on rice leafroller (Test Example 3), judged grade [3]: A (100)

Cc1cc(C(F)(F)C(F)(F)F)ccc1NC(=O)c1cccc(I)c1C(=O)NC(C)C(C)C (stereo not drawn) [compound 1033]
Insecticidal effect, Test Example 1 [1, 6]: A (100) | Insecticidal effect, Test Example 2 [2, 7]: A (100) | Insecticidal effect, Test Example 3 [3, 8]: A (100)

CC(C)NC(=O)c1c(C(=O)Nc2ccc(SC(F)(F)C(F)(F)Br)cc2)cccc1[N+](=O)[O-] [compound 628]
Insecticidal effect on diamondback moth (Test Example 1), judged grade [1]: A (100) | Insecticidal effect on common cutworm (Test Example 2), judged grade [2]: B (99-90) | Insecticidal effect on rice leafroller (Test Example 3), judged grade [3]: A (100)

Cc1cc([S+]([O-])C(F)(F)F)ccc1NC(=O)c1cccc(I)c1C(=O)NC(C)(C)C (stereo not drawn) [compound 1169]
Insecticidal effect, Test Example 1 [1, 6]: A (100) | Insecticidal effect, Test Example 2 [2, 7]: A (100) | Insecticidal effect, Test Example 3 [3, 8]: A (100)

Cc1cc(C(F)(F)C(F)(F)F)ccc1NC(=O)c1ccccc1C(=O)N(C(C)C)C(C)C [compound 1071]
Insecticidal effect, Test Example 1 [1, 6]: A (100) | Insecticidal effect, Test Example 2 [2, 7]: C (89-80) | Insecticidal effect, Test Example 3 [3, 8]: A (100)

Cc1cc(C#N)ccc1NC(=O)c1cccc(Cl)c1C(=O)NC(C)C [compound 1330]
Insecticidal effect, Test Example 1 [1, 6]: A (100) | Insecticidal effect, Test Example 2 [2, 7]: A (100) | Insecticidal effect, Test Example 3 [3, 8]: A (100)

Cc1cc(C(F)(F)C(F)(F)F)ccc1N(C)C(=O)c1cccc(I)c1C(=O)N(C)C [compound 1120]
Insecticidal effect, Test Example 1 [1, 6]: A (100) | Insecticidal effect, Test Example 2 [2, 7]: A (100) | Insecticidal effect, Test Example 3 [3, 8]: A (100)
